We go through three molecules from US11208412B2 (DAEGU-GYEONGBUK MEDICAL INNOVATION FOUNDATION, priority 2017, dated 2021).

What all share (test): Kinase selectivity, DiscoverX scanMAX Kinase assay panel (% control)
Format in all cases: binding

Test [1] deals with T1, kinases of the scanMAX Kinase assay panel (Homo sapiens, UniProt Q00526).
T1 construct: purchased DiscoverX Co. (contract measurement) scanMAX Kinase assay panel
The conditions noted are these: CDK3; 1 uM. The essentials:
(§1)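 Percent of control computed as (compound − positive control)/(negative control − positive control) × 100, DMSO defining 100% and positive control 0%. Each panel kinase exposed to 1 uM compound; values under 35% taken to mean the compound acts on that kinase.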

The target in test [2] is T2, kinases of the scanMAX Kinase assay panel (Homo sapiens, UniProt O00329).
T2 construct: purchased DiscoverX Co. (contract measurement) scanMAX Kinase assay panel
T2 sequence (O00329 1-1044): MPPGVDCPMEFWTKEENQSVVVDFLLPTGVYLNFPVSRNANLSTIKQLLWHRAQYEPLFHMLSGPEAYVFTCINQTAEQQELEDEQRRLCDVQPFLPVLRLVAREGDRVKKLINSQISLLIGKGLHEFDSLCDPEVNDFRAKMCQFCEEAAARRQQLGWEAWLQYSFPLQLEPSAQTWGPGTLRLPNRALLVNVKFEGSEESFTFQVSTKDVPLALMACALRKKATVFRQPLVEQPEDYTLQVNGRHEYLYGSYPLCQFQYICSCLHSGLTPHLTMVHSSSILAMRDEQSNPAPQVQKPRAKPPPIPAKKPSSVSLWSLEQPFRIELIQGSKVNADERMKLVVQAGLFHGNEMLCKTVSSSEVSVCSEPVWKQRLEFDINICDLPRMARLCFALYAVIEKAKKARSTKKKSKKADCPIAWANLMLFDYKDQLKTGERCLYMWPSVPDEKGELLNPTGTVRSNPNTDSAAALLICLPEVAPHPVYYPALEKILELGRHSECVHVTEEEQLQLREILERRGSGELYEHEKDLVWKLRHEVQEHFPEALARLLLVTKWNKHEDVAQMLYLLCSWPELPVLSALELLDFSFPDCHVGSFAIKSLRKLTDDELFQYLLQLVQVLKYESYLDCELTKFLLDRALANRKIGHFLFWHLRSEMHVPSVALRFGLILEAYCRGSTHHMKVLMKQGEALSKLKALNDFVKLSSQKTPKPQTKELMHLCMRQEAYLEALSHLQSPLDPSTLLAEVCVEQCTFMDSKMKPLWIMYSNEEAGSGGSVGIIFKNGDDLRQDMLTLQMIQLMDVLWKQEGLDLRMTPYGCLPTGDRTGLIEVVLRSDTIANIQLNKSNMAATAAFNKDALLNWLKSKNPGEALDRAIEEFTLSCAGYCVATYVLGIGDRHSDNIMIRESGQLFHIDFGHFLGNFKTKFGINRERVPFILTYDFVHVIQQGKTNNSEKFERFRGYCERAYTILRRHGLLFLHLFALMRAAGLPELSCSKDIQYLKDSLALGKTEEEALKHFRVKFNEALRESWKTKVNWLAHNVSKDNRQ
The conditions noted are these: PIK3CD; 1 uM. In outline: as §1

Test [3] has as its target T3, kinases of the scanMAX Kinase assay panel (Homo sapiens, UniProt Q00536).
T3 construct: purchased DiscoverX Co. (contract measurement) scanMAX Kinase assay panel
The conditions noted are these: PCTK1; 1 uM. The essentials: as §1

Test [4] deals with T4, kinases of the scanMAX Kinase assay panel (Homo sapiens, UniProt O43318).
T4 construct: purchased DiscoverX Co. (contract measurement) scanMAX Kinase assay panel
T4 sequence (O43318 1-606): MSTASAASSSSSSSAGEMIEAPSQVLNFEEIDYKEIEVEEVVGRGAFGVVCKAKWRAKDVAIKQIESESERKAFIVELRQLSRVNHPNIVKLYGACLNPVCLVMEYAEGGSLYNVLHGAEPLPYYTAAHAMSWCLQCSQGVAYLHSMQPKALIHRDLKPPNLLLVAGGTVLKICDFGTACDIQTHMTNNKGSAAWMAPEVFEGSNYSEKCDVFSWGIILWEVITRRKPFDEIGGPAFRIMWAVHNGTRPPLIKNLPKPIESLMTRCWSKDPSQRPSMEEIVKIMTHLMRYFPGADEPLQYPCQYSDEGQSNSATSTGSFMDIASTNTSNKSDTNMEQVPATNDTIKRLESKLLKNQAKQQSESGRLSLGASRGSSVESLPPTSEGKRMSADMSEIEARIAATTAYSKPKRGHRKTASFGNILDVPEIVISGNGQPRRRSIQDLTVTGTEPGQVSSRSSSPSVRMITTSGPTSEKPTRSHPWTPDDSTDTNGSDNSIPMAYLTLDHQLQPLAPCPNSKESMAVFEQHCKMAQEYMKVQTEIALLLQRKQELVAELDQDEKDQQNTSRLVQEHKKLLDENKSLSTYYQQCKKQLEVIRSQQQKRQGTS
The conditions noted are these: kinase TAK1; 1 uM in DMSO. In outline: as §1

T3 sequence (Q00536 whole entry): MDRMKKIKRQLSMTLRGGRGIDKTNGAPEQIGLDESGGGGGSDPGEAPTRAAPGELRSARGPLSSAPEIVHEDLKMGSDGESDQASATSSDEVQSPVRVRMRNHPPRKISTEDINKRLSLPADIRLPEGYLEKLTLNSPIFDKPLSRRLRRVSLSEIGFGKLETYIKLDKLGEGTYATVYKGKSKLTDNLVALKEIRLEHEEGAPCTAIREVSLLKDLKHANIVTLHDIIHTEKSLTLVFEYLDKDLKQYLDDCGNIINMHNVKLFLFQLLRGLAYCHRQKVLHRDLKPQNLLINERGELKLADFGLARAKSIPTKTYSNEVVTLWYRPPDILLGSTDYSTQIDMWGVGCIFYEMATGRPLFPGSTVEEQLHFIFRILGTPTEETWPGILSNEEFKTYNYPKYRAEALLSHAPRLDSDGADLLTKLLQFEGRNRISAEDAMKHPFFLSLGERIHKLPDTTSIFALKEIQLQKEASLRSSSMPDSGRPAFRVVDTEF
T1 sequence (Q00526 whole entry): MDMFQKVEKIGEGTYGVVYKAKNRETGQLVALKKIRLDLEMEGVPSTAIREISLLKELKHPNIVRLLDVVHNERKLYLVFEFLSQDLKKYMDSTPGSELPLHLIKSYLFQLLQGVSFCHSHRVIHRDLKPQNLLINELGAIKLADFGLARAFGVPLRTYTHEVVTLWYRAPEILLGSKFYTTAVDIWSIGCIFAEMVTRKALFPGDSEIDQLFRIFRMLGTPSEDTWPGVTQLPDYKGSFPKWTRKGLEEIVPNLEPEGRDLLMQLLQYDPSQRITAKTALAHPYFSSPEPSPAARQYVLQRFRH

Take `CNc1nc(Nc2ccc(C(=O)N3CCOCC3)cc2OC)nc2[nH]cc(C#N)c12` [Example 1, 2-((2-methoxy-4-(morpholine-4-carbonyl)phenyl)amino)-4-(methylamino)-7H-pyrrolo[2,3-d]pyrimidine-5-carbonitrile]: the remaining binding at 1 µM came to 100% in test [1], 99% in test [2], 77% in test [3] and 52% in test [4].
The matching figures for `CC1(Nc2nc(Nc3cnn([C@H]4CCN(C5COC5)C[C@@H]4F)c3Cl)nc3[nH]cc(C#N)c23)CC1` [Example 52, 2-((5-chloro-1-((3S,4S)-3-fluoro-1-(oxetane-3-yl)piperidine-4-yl)-1H-pyrazole-4-yl)amino)((1-methylcyclopropyl)amino)-7H-pyrrolo[2,3-d]pyrimidine-5-carbonitrile]: 76%, 9.4%, 100% and 0.05%.
For `CCNc1nc(Nc2ccc(C(=O)N3CCC(N4CCOCC4)CC3)cc2OC)nc2[nH]cc(C(F)(F)F)c12` [Example 104, (4-((4-(ethylamino)-5-(trifluoromethyl)-7H-pyrrolo[2,3-d]pyrimidine-2-yl)amino)-3-methoxyphenyl)(4-morpholinopiperidine-1-yl)methanone] the same measures were 93%, 78%, 100% and 100%.
